pEC50: −log10 of the molar value. Like-named read-outs stand apart in the source and are kept apart here.
What was measured:
[1] = test system: HT29; test: CellTiterGlo cell viability assay, HT29; assay type: cell-based; settings: Homo sapiens, HT29, 72 h; for pEC50: read-out: Ab EC50; for inhibition at 198 µM: percentage inhibition at the highest concentration tested, read-out: Top Inhibit
In short: (§1)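 Cell viability was measured by CellTiterGlo luminescence after ~72 h compound exposure under standard growth conditions. Compounds were tested in duplicate at 9 points, 3.16-fold dilutions, final concentrations 198 μM to 19.8 nM, 0.5% DMSO final; absolute EC50 and percentage inhibition at top concentration were reported.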

[2] = test system: HepG2; test: CellTiterGlo cell viability assay, HepG2; assay type: cell-based; settings: Homo sapiens, HepG2, 72 h
In short: as §1

[3] = test system: OVCAR 3; test: CellTiterGlo cell viability assay, OVCAR 3; assay type: cell-based; settings: Homo sapiens, OVCAR 3, 72 h
In short: as §1

[4] = test system: MCF-7; test: CellTiterGlo cell viability assay, MCF-7; assay type: cell-based; settings: MCF-7, 72 h; for pEC50: read-out: Ab EC50
In short: as §1

[5] = test system: CCRF-CEM; test: CellTiterGlo cell viability assay, CCRF-CEM; assay type: cell-based; settings: 72 h; for pEC50: read-out: Ab EC50
In short: as §1

[6] = test system: MOLT-4; test: CellTiterGlo cell viability assay, MOLT-4; assay type: cell-based
In short: as §1

[7] = test system: K562; test: CellTiterGlo cell viability assay, K562; assay type: cell-based; settings: for pEC50: read-out: Ab EC50
In short: as §1

[8] = test system: HL-60; test: CellTiterGlo cell viability assay, HL-60; assay type: cell-based; settings: Homo sapiens, HL-60, 72 h; for inhibition at 198 µM: read-out: Top Inh
In short: as §1

[9] = test system: RL; test: CellTiterGlo cell viability assay, RL; assay type: cell-based; settings: Homo sapiens, 72 h
In short: as §1

[10] = test system: RPMI-8226; test: CellTiterGlo cell viability assay, RPMI-8226; assay type: cell-based, Human; settings: Homo sapiens, RPMI-8226, 72 h
In short: as §1

[11] = test system: KG-1; test: CellTiterGlo cell viability assay, KG-1; assay type: cell-based; settings: Homo sapiens, KG-1, 72 h
In short: as §1

[12] = in vitro; settings: human, hepatocytes, pH 7.3
[13] = test system: Mia-Pa-Ca-2; test: CellTiterGlo cell viability assay, Mia-Pa-Ca-2; assay type: cell-based; settings: Homo sapiens, MIA PaCa-2, Mia-Pa-Ca-2, 72 h
Procedure: A subset of compounds of the invention were assayed for their cytotoxic activity in an array of different solid tumours and haematological malignancies using the following assay.
In vitro viability assay were performed to assess the effects of compounds on cell viability in selected cell lines over 72 h using the CellTiterGlo (CTG, Promega-G7573) assay. The tests were performed in duplicates with treatment of compounds at 9 points, 3.16 folds titration in 96 well plates over ˜72 h. The compound starting concentrations were 198 μM. Cell viability assay using CellTiterGlo in 96-well plate were performed. Compound treatment 72 h, standard growth conditions, duplicates. Compounds were dissolved to 40 mM with thawed […]. Compounds were serially diluted at 3.16 fold in thawed DMSO, and warmed to 37° C. before being dissolved in media (2 μL+200 μL). After compounds were dissolved in media, media containing compounds were warmed to 37° C. in incubator and then compounds in media were added to cell plates (50 μL+50 μL) in duplicates. The compounds' final concentrations were from 198 μM to 19.8 nM. All compound solubilities were checked and recorded again, then the plates were transferred to CO2 tissue culture incubator immediately and incubated for 3 days. DMSO final concentration is 0.5%. The parent nucleoside in each case was tested as a comparator, as was an exemplary ProTide. The drugs of the ProTide class that were tested were as follows:
The following cell lines were tested and are referred to in the Table 1 below:
In Tables 2, 3 and 4, ‘Ab EC50’ refers to the absolute EC50 and ‘Top inhibit’ refers to the percentage inhibition achieved at the highest concentration tested.

[14] = Table 4 classes, read-out: Ab EC50
[15] = percentage inhibition at the highest concentration tested, read-out: Top Inhibit
[16] = absolute EC50, numeric values, read-out: Ab EC50
[17] = percentage inhibition at the highest concentration tested, read-out: Top Inh

Question: With `C[C@H](NP(=O)(OC[C@H]1O[C@@H](n2cnc3c(N)nc(Cl)nc32)[C@H](F)C1O)Oc1ccccc1)C(=O)OCc1ccccc1` (stereo partly drawn) [A, reference compound] as the compound, how does the pEC50 ([1]; HT-29, 72 h, Table 3 classes) read?
Answer: 5.30 to 5.70

Question: What about the pEC50 ([1]; HT-29, 72 h, Table 4 classes) of the same compound?
Answer: 5.30 to 6.00

Question: And the inhibition at 198 µM ([1]; HT-29, 72 h)?
Answer: 94%

Question: What about the pEC50 [2, 14] of the same compound?
Answer: 5.00 to 5.30

Question: And the inhibition at 198 µM [2, 15]?
Answer: 99%

Question: And the pEC50 [3, 14]?
Answer: < 5.00

Question: What about the inhibition at 198 µM [3, 15] of the same compound?
Answer: 94%

Question: What about the inhibition at 198 µM ([4]; Homo sapiens, MCF7, 72 h, percentage inhibition at the highest concentration tested, read-out: Top Inhibit) of the same compound?
Answer: 99.6%

Question: And the pEC50 ([4]; Homo sapiens, MCF7, Table 3 classes)?
Answer: 5.00 to 5.30

Question: What about the pEC50 ([4]; Table 4 classes) of the same compound?
Answer: 5.00 to 5.30

Question: And the pEC50 ([5]; Table 4 classes)?
Answer: > 6.70

Question: What about the pEC50 ([5]; Homo sapiens, Table 3 classes) of the same compound?
Answer: > 6.70

Question: What about the inhibition at 198 µM ([5]; Homo sapiens, percentage inhibition at the highest concentration tested, read-out: Top Inh) of the same compound?
Answer: 99.4%

Question: And the pEC50 ([6]; Homo sapiens, MOLT-4, 72 h, Table 3 classes, read-out: Ab EC50)?
Answer: 5.70 to 6.70

Question: And the pEC50 ([6]; Homo sapiens, MOLT-4, 72 h, Table 4 classes, read-out: Ab EC50)?
Answer: 6.00 to 6.70

Question: What about the inhibition at 198 µM ([6]; Homo sapiens, MOLT-4, 72 h, percentage inhibition at the highest concentration tested, read-out: Top Inh) of the same compound?
Answer: 93%

Question: And the pEC50 ([7]; Homo sapiens, K562, 72 h)?
Answer: < 5.00

Question: And the pEC50 ([7]; K 562, 72 h, Table 4 classes)?
Answer: < 5.00

Question: What about the pEC50 ([8]; read-out: Ab EC50, HL-60, 72 h, Table 3 classes) of the same compound?
Answer: 5.70 to 6.70

Question: What about the pEC50 ([8]; read-out: Ab EC50, HL-60, 72 h, Table 4 classes) of the same compound?
Answer: 6.00 to 6.70

Question: And the inhibition at 198 µM [8]?
Answer: 97%

Question: What about the pEC50 ([9]; read-out: Ab EC50, RL, 72 h, Table 3 classes) of the same compound?
Answer: 5.30 to 5.70

Question: And the pEC50 ([9]; read-out: Ab EC50, RL, 72 h, Table 4 classes)?
Answer: 5.30 to 6.00

Question: What about the inhibition at 198 µM ([9]; read-out: Top Inh, RL, 72 h, percentage inhibition at the highest concentration tested) of the same compound?
Answer: 99.8%

Question: What about the pEC50 ([10]; read-out: Ab EC50, RPMI-8226, 72 h, Table 3 classes) of the same compound?
Answer: 5.30 to 5.70

Question: And the pEC50 ([10]; read-out: Ab EC50, RPMI-8226, 72 h, Table 4 classes)?
Answer: 5.30 to 6.00

Question: What about the inhibition at 198 µM ([10]; read-out: Top Inh, RPMI-8226, 72 h, percentage inhibition at the highest concentration tested) of the same compound?
Answer: 97%

Question: And the pEC50 ([11]; read-out: Ab EC50)?
Answer: 6.00 to 6.70

Question: And the inhibition at 198 µM ([11]; read-out: Top Inhibit)?
Answer: 93%

Question: What about the half-life at 1 μM [12] of the same compound?
Answer: 24 min

Question: With `Nc1ncnc2c1ncn2[C@@H]1O[C@H](CO)C[C@H]1O` [Cordycepin, reference compound] as the compound, how does the pEC50 ([13]; absolute EC50, read-out: Ab EC50) read?
Answer: 4.07

Question: And the inhibition at 198 µM [13, 15]?
Answer: 88%

Question: What about the pEC50 ([1]; HT-29, absolute EC50, numeric values) of the same compound?
Answer: 4.48

Question: And the inhibition at 198 µM ([1]; HT-29)?
Answer: 87%

Question: And the pEC50 ([6]; Homo sapiens; MOLT-4, 72 h, absolute EC50, numeric values; read-out: Ab EC50)?
Answer: 4.00

Question: What about the inhibition at 198 µM ([6]; Homo sapiens; MOLT-4, 72 h, percentage inhibition at the highest concentration tested; read-out: Top Inh) of the same compound?
Answer: 76.5%

Question: And the pEC50 ([7]; Homo sapiens, K562, 72 h, absolute EC50, numeric values)?
Answer: 3.93

Question: What about the inhibition at 198 µM ([7]; Homo sapiens, K562, 72 h, percentage inhibition at the highest concentration tested, read-out: Top Inh) of the same compound?
Answer: 94%

Question: What about the pEC50 [8, 16] of the same compound?
Answer: 3.93

Question: And the inhibition at 198 µM ([8]; percentage inhibition at the highest concentration tested)?
Answer: 56%

Question: And the pEC50 [9, 16]?
Answer: < 3.70

Question: And the inhibition at 198 µM [9, 17]?
Answer: 16.6%

Question: What about the pEC50 [10, 16] of the same compound?
Answer: < 3.70

Question: What about the inhibition at 198 µM [10, 17] of the same compound?
Answer: 17%

Question: What about the half-life [12] of the same compound?
Answer: 48 min
